In patent US6946447B2, “MDM2-specific antisense oligonucleotides” (Hybridon, Inc., priority 1997, dated 2005):
Where two headings read alike, the source gives them in different places. Strand notation (5' to 3'): a small letter for the sugar, then the base; units joined by * are phosphorothioate-linked, units joined directly phosphodiester-linked; [ ] holds rarer units or linkages, { } end groups; capitals alone tell only the bases. d = 2'-deoxy (DNA)

Legend:
[1] = test system: JAR-TK-luc and H1299-BP100-luc cells; test: Control luciferase reporters in JAR-TK-luc and H1299-BP100-luc cells; type: cell-based, human
Protocol: JAR cells stably transfected with a luciferase reporter driven by the thymidine kinase gene promoter (JAR-TK-luc) and H1299 cells containing no p53 that had been stably transfected with BP100-luciferase (H1299-BP1000-luc) were also tested. […] Similar results were also observed using AS5 in osteosarcoma SJSA cells (data not shown).

JAR cells [2] = conditions: cited from earlier work
MDM2 [3] = test: MDM2 protein level by immunoprecipitation/Western blot in oligonucleotide-treated cells; type: cell-based, human; conditions: JAR cells, 18 h, Lipofectin 7 μg/ml, Western blot (FIG. 2A)
p21/WAF1 [4] = test: p21/WAF1 induction by Western blot in JAR cells; type: cell-based, human; conditions: 200 nM, relative to control-treated cells
Protocol: To assess the ability of the oligonucleotides of the invention to induce the expression of a p53-inducible gene, p21/WAF1 levels were examined in oligonucleotide-treated JAR cells. Total protein was purified from control oligonucleotide-treated cells and from antisense oligonucleotide-treated cells (200 nM oligonucleotide AS5) as described in Example 1. Equal amounts of purified total protein were immunoprecipitated and analyzed by Western blotting carried out for MDM2 detection using a polyclonal rabbit anti-human p21/WAF1 serum. Following hybridization, the blots were exposed to XAR film (Eastman Kodak, Rochester, N.Y.) and the autoradiograms are quantitated by phosphoroimaging.

p53 [5] = test: Nuclear p53 level by immunofluorescence staining with Pab1801; type: cell-based, human; conditions: MCF-7 cells, 200 nM, 20 hr
tumor cell lines [6] = test: Cell death / apoptosis in other cell lines; type: cell-based, human; conditions: H1299 cells (lack p53)
p53-MDM2 complex = test: Co-immunoprecipitation of p53-MDM2 complex in JAR cells; type: cell-based, human
Text: Protein lysates from JAR cells treated with antisense oligonucleotides as described in Example 1 were immunoprecipitated with anti-p53 monoclonal antibody Pab421 (FIGS. 4A and 4B) (Harlow et al. J. Virol. 39:861-869 (1981)) or with polyclonal antibody 2A10 (panel C) according to the methods described in Example 1. The gel was then transferred onto an Immobilon P membrane (Millipore, Bedford, Mass.) to detect MDM2 co-precipitates.

MDM2 [7] = conditions: JAR and SJSA cells, 100-400 nM, Lipofectin; cited from earlier work
p21/WAF1 [8] = conditions: optimal concentration 200 nM; cited from earlier work
p53 [9] = test: p53-responsive BP100-luciferase reporter in JAR cells; type: cell-based, human
JAR cells [10] = test: Induction of apoptosis / cell death in JAR cells; type: cell-based, human; conditions: 400 nM
Protocol: JAR cells (ATCC) were grown in DMEM medium supplemented with 1% FBS according to standard cell culture techniques. Cells were then treated for 30 hours with growth medium containing 400 nM of either antisense oligonucleotide AS5 (SEQ ID NO:28) complementary to a portion of MDM2-encoding RNA or control oligonucleotide M4 (SEQ ID NO:5), and 7 μg/ml lipofectin (Gibco BRL Paisley, UK). Treated cells were then photographed using a phase contrast microscope.
JAR cells were treated for 24 hours as described in Example 6. Floating cells were harvested and chromosomal DNA was extracted according to standard techniques (Liu et al., Cell 86:147-157 (1996)). Purified DNA was then analyzed by agarose gel electrophoresis on a 2% agarose gel. Following electrophoresis the gel was stained with 0.5 μg/ml ethidium bromide.

tumor cell lines [11] = conditions: H1299 cells that lack p53; cited from earlier work
MDM2 mRNA = test: Northern blot of MDM2 mRNA in JAR cells; type: cell-based, human; conditions: 200 nM, 18 h
Protocol: JAR cells were treated with 200 nM of antisense oligonucleotide AS5 (SEQ ID NO:28) with no oligonucleotide, with 200 nM of control oligonucleotide M4 (SEQ ID NO:5). After 18 hours, the treated cells were harvested and RNA was purified and quantitated according to standard methods. (see e.g., Current Protocols in Molecular Biology, John Wiley & Sons Inc. (1995)). Twenty μg of total RNA were run on a 1% agarose denaturing gel. MDM2 mRNA was detected by hybridization using an EcoRI-NcoI fragment specific for the human MDM2 cDNA between nucleotides 310-1633. The filter was then stripped and reprobed with a 1.2 kb fragment, which is a full length human GAPDH cDNA to normalize values on the basis of loading variations, according to standard methods.

AS5: anti-MDM2 antisense PS-oligo SEQ ID NO:28, 5′-GATCACTCCCACCTTCAAGG-3′ (DNA dG*dA*dT*dC*dA*dC*dT*dC*dC*dC*dA*dC*dC*dT*dT*dC*dA*dA*dG*dG)
activation of reporter gene in control cells [1]: did not activate the reporter gene | apoptosis (JAR cells [2]): significant increase in the levels of apoptosis | inhibition of MDM2 expression (MDM2 [3]): 3-5 fold | induction of p21/WAF1 (p21/WAF1 [4]): up to 6.6 fold | nuclear p53 staining (p53 [5]): similar, but weaker | apoptosis (tumor cell lines [6]): did not cause visible apoptosis | total p53 levels (p53-MDM2 complex; JAR cells (FIG. 4A)): did not change | amount of MDM2 co-precipitated with p53 (p53-MDM2 complex; JAR cells (FIG. 4B)): reduced | decrease of MDM2 protein levels (MDM2 [7]): 3-5 fold | induction of p21 expression (p21/WAF1 [8]): up to 6.6 fold | induction of p53 activity among the initial antisense oligonucleotides tested (p53 [9]): most effective | activation of p53-responsive reporter expression (p53 [9]; JAR BP100-luc, 200 nM, 24 h): 7 fold | activation of the p53 reporter (p53 [9]; JAR BP100-luc, 48 h, AS5 200 nM, CPT alone, AS5 alone or co-incubation): 17 fold | chromosomal DNA cleavage in floating cells (JAR cells [10]; 24 h, agarose gel): nucleosomal-sized low molecular weight bands characteristic of apoptosis | cell death / apoptosis morphology (JAR cells [10]; 30 h, Lipofectin): induced significant cell death | apoptosis (tumor cell lines [11]): did not cause visible apoptosis | increase of MDM2 mRNA (MDM2 mRNA): 2.5 fold | molecular weight of the MDM2 mRNA band (MDM2 mRNA): slight decrease in the molecular weight of the MDM2 mRNA band
